Test results: patent publication US8088815B2, “Spiroindolinone pyrrolidines” (Hoffman-La Roche Inc., priority 2009, dated 2012)
pIC50: −log10 of the molar value.

Target: interaction between p53 and MDM2 proteins (Homo sapiens, UniProt Q00987)
Test: HTRF assay of inhibition of the p53-MDM2 interaction (GST-MDM2 / biotinylated p53 peptide)
Assay type: binding
Conditions: recombinant GST-tagged MDM2 and biotinylated p53 peptide, bsa:0.02%
Method: The ability of the compounds to inhibit the interaction between p53 and MDM2 proteins was measured by an HTRF (homogeneous time-resolved fluorescence) assay in which recombinant GST-tagged MDM2 binds to a peptide that resembles the MDM2-interacting region of p53. Binding of GST-MDM2 protein and p53-peptide (biotinylated on its N-terminal end) is registered by the FRET (fluorescence resonance energy transfer) between Europium (Eu)-labeled anti-GST antibody and streptavidin-conjugated Allophycocyanin (APC).
Add 10 uL diluted compounds (1:5 dilution in reaction buffer) to each well, mix by shaking. Add 20 uL biotinylated p53 peptide (180 nM working solution) in reaction buffer to each well and mix on shaker. Incubate at 37° C. for 1 h. Add 20 uL streptavidin-APC and Eu-anti-GST antibody mixture (6 nM Eu-anti-GST and 60 nM streptavidin-APC working solution) in TBS buffer with 0.2% BSA, shake at room temperature for 30 minutes and read using a TRF-capable plate reader at
665 and 615 nm (Victor 5, Perkin ElmerWallac). If not specified, the reagents were purchased from Sigma Chemical Co.

Sequence of interaction between p53 and MDM2 proteins (Q00987 whole entry): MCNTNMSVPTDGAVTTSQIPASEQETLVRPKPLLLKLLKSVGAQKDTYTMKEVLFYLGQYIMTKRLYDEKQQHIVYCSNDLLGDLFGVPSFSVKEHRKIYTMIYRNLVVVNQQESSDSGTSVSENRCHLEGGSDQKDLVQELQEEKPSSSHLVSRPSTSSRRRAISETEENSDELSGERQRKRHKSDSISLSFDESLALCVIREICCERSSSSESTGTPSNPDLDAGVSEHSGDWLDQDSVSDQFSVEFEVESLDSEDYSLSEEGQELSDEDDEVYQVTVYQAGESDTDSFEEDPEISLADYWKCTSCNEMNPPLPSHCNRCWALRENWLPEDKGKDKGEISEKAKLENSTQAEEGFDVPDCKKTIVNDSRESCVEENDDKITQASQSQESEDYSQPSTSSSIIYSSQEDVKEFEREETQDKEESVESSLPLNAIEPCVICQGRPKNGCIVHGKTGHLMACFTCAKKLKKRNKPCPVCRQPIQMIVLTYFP

Structure (SMILES) | pIC50
CCOC(=O)Cc1ccc(NC(=O)[C@@H]2N[C@@H](CC(C)(C)C)[C@@]3(C(=O)Nc4cc(Cl)ccc43)[C@H]2c2cccc(Cl)c2F)cc1 (racemic) [Example 219, rac-(4-{[(2′S,3′R,4′S,5′R)-6-chloro-4′-(3-chloro-2-fluoro-phenyl)-2′-(2,2-dimethyl-propyl)-2-oxo-1,2-dihydro-spiro[indole-3,3′-pyrrolidine]-5′-carbonyl]amino}-phenyl)-acetic acid ethyl ester] | 7.89
CC(C)(C)C[C@@H]1N[C@@H](C(=O)Nc2ccc(C(N)=O)cc2OC(F)(F)F)[C@H](c2cccc(Cl)c2F)[C@]12C(=O)Nc1cc(Cl)ccc12 (racemic) [Example 146, rac-(2′S,3′R,4′S,5′R)-6-chloro-4′-(3-chloro-2-fluoro-phenyl)-2′-(2,2-dimethyl-propyl)-2-oxo-1,2-dihydro-spiro[indole-3,3′-pyrrolidine]-5′-carboxylic acid (4-carbamoyl-2-trifluoromethoxy-phenyl)-amide] | 7.85
CC(C)(C)C[C@@H]1N[C@@H](C(=O)Nc2ccc3sc(C(=O)O)cc3c2)[C@H](c2cccc(Cl)c2F)[C@]12C(=O)Nc1cc(Cl)ccc12 (racemic) [Example 213, rac-5-{[(2′S,3′R,4′S,5′R)-6-chloro-4′-(3-chloro-2-fluoro-phenyl)-2′-(2,2-dimethyl-propyl)-2-oxo-1,2-dihydro-spiro[indole-3,3′-pyrrolidine]-5′-carbonyl]amino}-benzo[b]thiophene-2-carboxylic acid] | 7.85
CC(C)(C)C[C@@H]1N[C@@H](C(=O)Nc2ccc(I)cc2)[C@H](c2cccc(Cl)c2F)[C@]12C(=O)Nc1cc(Cl)ccc12 (racemic) [Example 56, rac-(2′S,3′R,4′S,5′R)-6-chloro-4′-(3-chloro-2-fluoro-phenyl)-2′-(2,2-dimethyl-propyl)-2-oxo-1,2-dihydro-spiro[indole-3,3′-pyrrolidine]-5′-carboxylic acid (4-iodo-phenyl)-amide] | 7.72
CC(C)(C)C[C@@H]1N[C@@H](C(=O)Nc2ccc(C(N)=O)cc2)[C@H](c2cccc(Cl)c2F)[C@]12C(=O)Nc1cc(Cl)ccc12 (racemic) [Example 8, rac-(2′S,3′R,4′S,5′R)-6-chloro-4′-(3-chloro-2-fluoro-phenyl)-2′-(2,2-dimethyl-propyl)-2-oxo-1,2-dihydro-spiro[indole-3,3′-pyrrolidine]-5′-carboxylic acid (4-carbamoyl-phenyl)-amide] | 8.15
COC(=O)c1ccc(NC(=O)[C@@H]2N[C@@H](CC(C)(C)C)[C@@]3(C(=O)Nc4cc(Br)ccc43)[C@H]2c2cccc(Cl)c2F)c(OC)c1 (racemic) [Example 122, rac-4-{[(2′S,3′R,4′S,5′R)-6-bromo-4′-(3-chloro-2-fluoro-phenyl)-2′-(2,2-dimethyl-propyl)-2-oxo-1,2-dihydro-spiro[indole-3,3′-pyrrolidine]-5′-carbonyl]-amino}-3-methoxy-benzoic acid methyl ester] | 7.89
CC(C)(C)C[C@@H]1N[C@@H](C(=O)Nc2ccc(C#N)cc2)[C@H](c2cccc(Br)c2F)[C@]12C(=O)Nc1cc(Cl)ccc12 (racemic) [Example 98, rac-(2′S,3′R,4′S,5′R)-4′-(3-bromo-2-fluoro-phenyl)-6-chloro-2′-(2,2-dimethyl-propyl)-2-oxo-1,2-dihydro-spiro[indole-3,3′-pyrrolidine]-5′-carboxylic acid (4-cyano-phenyl)-amide] | 7.74
CC(C)(C)C[C@@H]1N[C@@H](C(=O)Nc2ccc(CCC(N)=O)cc2)[C@H](c2cccc(Cl)c2F)[C@]12C(=O)Nc1cc(Cl)ccc12 (racemic) [Example 211, rac-(2′S,3′R,4′S,5′R)-6-chloro-4′-(3-chloro-2-fluoro-phenyl)-2′-(2,2-dimethyl-propyl)-2-oxo-1,2-dihydro-spiro[indole-3,3′-pyrrolidine]-5′-carboxylic acid [4-(2-carbamoyl-ethyl)-phenyl]-amide] | 7.82
COc1cc(C#N)ccc1NC(=O)[C@@H]1N[C@@H](CC(C)(C)C)[C@@]2(C(=O)Nc3cc(Cl)c(F)cc32)[C@H]1c1cccc(Cl)c1F (racemic) [Example 112, rac-(2′S,3′R,4′S,5′R)-6-chloro-4′-(3-chloro-2-fluoro-phenyl)-2′-(2,2-dimethyl-propyl)-5-fluoro-2-oxo-1,2-dihydro-spiro[indole-3,3′-pyrrolidine]-5′-carboxylic acid (4-cyano-2-methoxy-phenyl)-amide] | 7.82

Next, values leading:

pIC50 | Structure (SMILES)
7.74 | COC(=O)c1cc2cc(NC(=O)[C@@H]3N[C@@H](CC(C)(C)C)[C@@]4(C(=O)Nc5cc(Cl)ccc54)[C@H]3c3cccc(Cl)c3F)ccc2s1 (racemic) [Example 212, rac-5-{[(2′S,3′R,4′S,5′R)-6-chloro-4′-(3-chloro-2-fluoro-phenyl)-2′-(2,2-dimethyl-propyl)-2-oxo-1,2-dihydro-spiro[indole-3,3′-pyrrolidine]-5′-carbonyl]amino}-benzo[b]thiophene-2-carboxylic acid methyl ester]
7.77 | CC(C)(C)C[C@@H]1N[C@@H](C(=O)Nc2ccc(C#N)nc2)[C@H](c2cccc(Cl)c2F)[C@]12C(=O)Nc1cc(Cl)ccc12 (racemic) [Example 182, rac-(2′S,3′R,4′S,5′R)-6-chloro-4′-(3-chloro-2-fluoro-phenyl)-2′-(2,2-dimethyl-propyl)-2-oxo-1,2-dihydro-spiro[indole-3,3′-pyrrolidine]-5′-carboxylic acid (6-cyano-pyridin-3-yl)-amide]
7.82 | CC(C)(C)C[C@@H]1N[C@@H](C(=O)Nc2ccc(CC(=O)O)cc2)[C@H](c2cccc(Cl)c2F)[C@]12C(=O)Nc1cc(Cl)ccc12 (racemic) [Example 220, rac-(4-{[(2′S,3′R,4′S,5′R)-6-chloro-4′-(3-chloro-2-fluoro-phenyl)-2′-(2,2-dimethyl-propyl)-2-oxo-1,2-dihydro-spiro[indole-3,3′-pyrrolidine]-5′-carbonyl]-amino}-phenyl)-acetic acid]
7.89 | CC(C)(C)C[C@@H]1N[C@@H](C(=O)Nc2ccc(C(N)=O)cc2)[C@H](c2cccc(Cl)c2F)[C@]12C(=O)Nc1cc(Cl)c(F)cc12 (racemic) [Example 49, rac-(2′S,3′R,4′S,5′R)-6-chloro-4′-(3-chloro-2-fluoro-phenyl)-2′-(2,2-dimethyl-propyl)-5-fluoro-2-oxo-1,2-dihydro-spiro[indole-3,3′-pyrrolidine]-5′-carboxylic acid (4-carbamoyl-phenyl)-amide]
8.30 | CC(C)(C)C[C@@H]1N[C@@H](C(=O)Nc2ccc(C#N)cc2)[C@H](c2cccc(Cl)c2F)[C@]12C(=O)Nc1cc(Cl)ccc12 [Example 137, chiral (2′S,3′R,4′S,5′R)-6-chloro-4′-(3-chloro-2-fluoro-phenyl)-2′-(2,2-dimethyl-propyl)-2-oxo-1,2-dihydro-spiro[indole-3,3′-pyrrolidine]-5′-carboxylic acid (4-cyano-phenyl)-amide]
7.85 | CC(C)(C)C[C@@H]1N[C@@H](C(=O)Nc2ccc(C(=O)CO)cc2)[C@H](c2cccc(Cl)c2F)[C@]12C(=O)Nc1cc(Cl)ccc12 (racemic) [Example 42, rac-(2′S,3′R,4′S,5′R)-6-chloro-4′-(3-chloro-2-fluoro-phenyl)-2′-(2,2-dimethyl-propyl)-2-oxo-1,2-dihydro-spiro[indole-3,3′-pyrrolidine]-5′-carboxylic acid [4-(2-hydroxy-acetyl)-phenyl]-amide]
